# Results as given in patent publication US20070249709A1, “Crystal forms of (S)-(8(2,6-dichlorophenyl)-6-fluoro-2,3-dihydro benzo[b][1,4]dioxin-2-yl)methanamine hydrochloride salt” (Wyeth, priority 2006, published 2007).
# Entries after “also recorded” stand apart in the source; their conditions may differ. Counter-ions that a name gives are not always drawn.
# Assays:
# Type in all cases: physicochemical
# Grinding test = conditions: manually ground, ambient conditions; hydrochloride
# Description: Samples of Form I and Form II were manually ground and the resulting powders were characterized by one or more methods of XRPD, DSC and TGA.
# [1] = Hygroscopicity by dynamic vapor sorption (DVS); conditions: for Reversibility of DVS mass change / Crystal form stability at high humidity (DVS): hydrochloride; for Crystal form stability at high humidity (DVS): high RH
# Description: The hygroscopicity (the ability to absorb water vapor from the surrounding atmosphere) of Forms I and II was explored by dynamic vapor sorption (DVS) experiments. […] When RH was scanned from 70% to 100%, significant mass change was observed (up to about 4.5%). […] When RH continued to be scanned from 50% to 0%, the sample lost water (weight). […] A second cycle of scanning indicated a new absorption behavior when RH was raised from 50% to 100%.
# The starting RH was about 50%, and only about 1% of mass change was observed when RH was scanned to 100% RH. When RH was scanned back to 50%, the mass change appeared reversible. The mass change was very slow when RH continued to be scanned from 50% to 10%. When RH was scanned from 10% to 0%, the sample lost about 2.7% of mass (water).
# [2] = Solution mediated transformation (reslurry stability experiments at 25° C.); conditions: for Stability on slurrying (summary of Table 6): water or organic solvent, hydrochloride
# Description: The mixtures were then filtered and the solids obtained were characterized by one or more methods of XRPD, DSC and TGA.
# [3] = Thermal stability of crystal forms under vacuum and 50° C.; conditions: vacuum
# Method: Forms I, II and III were placed in oven at 50° C. and under vacuum to assess their thermal stability.
# [4] = Heating of a mixture of Form I and Form III
# Method: A mixture of Form I and Form III (2θ-50 wt % of Form III) was heated to 110° C. at ambient pressure and kept at this temperature and pressure for 4 hours.
# A mixture of Form I and Form III (2θ-50 wt % of Form III) was placed in an oven at 50° C. and under vacuum for 72 hours.
# [5] = Slurry of a mixture of Form I and Form III in a solvent, crystal form by XRPD/DSC; conditions: for Final Form, Slurry @ RT: about 2 days
# Method: A mixture of Form I and Form III (2θ-50 wt % of Form III) was slurried in a solvent (see Table 5) with stirring at room temperature for about 2 days. The slurry was then filtered at room temperature. The solid was dried at 50° C. under vacuum for overnight. The solid obtained by the filtration was characterized by XRPD both before and after the drying at 50° C.
# [6] = RH scanned from 100% back to 50%, room temperature
structure (smiles),measurement,setting,value
"NC[C@H]1COc2cc(F)cc(-c3c(Cl)cccc3Cl)c2O1 [Form I, (S)-(8-(2,6-dichlorophenyl)-6-fluoro-2,3-dihydrobenzo[b][1,4]dioxin-2-yl)methanamine hydrochloride]",Solid form After grinding,Grinding test,some of Form I is changed into Form III
same,DVS mass change,"[1]; RH from about 50% to 70%, room temperature (FIG. 3)",little mass change
same,Water absorption (DVS),[1]; RH raised from 0% only to about 70% (FIG. 4),absorbed very little water
same,DVS mass change,"[1]; RH scanned from 70% to 100%, room temperature",up to 4.5%
same,DVS mass change remaining,[1]; [6],about 2.7%
same,Reversibility of DVS mass change,[1]; [6],substantially irreversible
same,Crystal form stability at high humidity (DVS),[1]; room temperature,may be converted into another form at high RH
same,Stability on slurrying (summary of Table 6),[2],stable in organic solvents
same,Relative thermal stability (retention of crystal lattice integrity),[3],more stable than Form III
same,Final Form,[3]; 48 hr,Form I
"NC[C@H]1COc2cc(F)cc(-c3c(Cl)cccc3Cl)c2O1 [Form III, (S)-(8-(2,6-dichlorophenyl)-6-fluoro-2,3-dihydrobenzo[b][1,4]dioxin-2-yl)methanamine hydrochloride]",Stability on slurrying (summary of Table 6),[2],less stable under some conditions
same,Final Form,[3]; 20 hr,Form I + Form III
"NC[C@H]1COc2cc(F)cc(-c3c(Cl)cccc3Cl)c2O1 [I & III, (S)-(8-(2,6-dichlorophenyl)-6-fluoro-2,3-dihydrobenzo[b][1,4]dioxin-2-yl)methanamine hydrochloride]",Resulting solid form (XRPD),"[4]; 110° C., ambient pressure, 4 hours",anhydrous Form I
same,Resulting solid form (XRPD),"[4]; oven at 50° C., under vacuum, 72 hours",anhydrous Form I
same,"Final Form, Slurry @ 50° C.",[5]; Isopropyl acetate,by DSC (I and minor III)
same,"Final Form, Slurry @ RT",[5]; Isopropyl acetate,DSC (I and minor III)
same,"Final Form, Slurry @ RT",[5]; Toluene,DSC (I and minor III)
"NC[C@H]1COc2cc(F)cc(-c3c(Cl)cccc3Cl)c2O1 [Form II, (S)-(8-(2,6-dichlorophenyl)-6-fluoro-2,3-dihydrobenzo[b][1,4]dioxin-2-yl)methanamine hydrochloride]",Solid form After grinding,Grinding test,did not lose its crystal structure; also recorded: Form II
same,DVS mass (water) loss,"[1]; RH scanned from 10% to 0%, room temperature",about 2.7%
same,Reversibility of DVS mass change,[1]; [6],reversible
same,DVS mass change,"[1]; RH scanned from about 50% to 100%, room temperature (FIG. 8)",about 1%
same,Crystal form stability at high humidity (DVS),[1]; room temperature,substantially stable even under high humidity
same,"Final form, Sample from wet filter cake","[2]; reslurry in tBME, 30 mins",I + II
same,Stability on slurrying (summary of Table 6),[2],stable in water
same,Relative thermal stability (retention of crystal lattice integrity),[3],more stable than Form III
same,Final Form,[3]; 72 hr,Form II
